Measurements as given in patent publication US20230089557A1, “METHODS OF TREATING DLBCL USING BTK INHIBITORS AND COMBINATIONS THEREOF” (BEIGENE SWITZERLAND GMBH, priority 2020, published 2023).

System: R/R non-GCB DLBCL
Experiment: Compound 1 monotherapy in patients with R/R non-GCB DLBCL
Type: in vivo, human
Conditions: for unadjusted ORR: non-GCB DLBCL
Protocol: A total of 121 patients with R/R non-GCB DLBCL were recruited in four Compound 1 treatment studies that were conducted at a similar time period. Two of the four studies were Compound 1 monotherapy (n=79) and two were Compound 1 combined with an anti-CD20 antibody therapy (n=42). Similar inclusion and exclusion criteria and response evaluation criteria were used across all studies. Fifty-six non-GCB patients were further subtyped by gene expression profiling (GEP) using the HTG EdgeSeq DLBCL Cell of Origin Assay. The expression of approximately 90 lymphoma-associated genes from the HTG GEP assay were analyzed by R package limma for correlation with response to Compound 1 treatment. Seventy-seven patient samples were tested by next-generation sequencing (NGS) with a panel of genes. Chi-square test was used to evaluate the correlation between mutations and the objective response rate (ORR).
Monotherapy schedule 1: Compound 1 was administered orally every day at 160 mg twice daily (BID) in 28-day cycles in patients with R/R non-GCB DLBCL.
Monotherapy schedule 2: Compound 1 was administered orally every day in each cycle at 160 mg BID in 28-day cycles in patients with R/R non-GCB DLBCL.
79 patients with non-GCB DLBCL were subjected to Compound 1 monotherapies (Monotherapy Schedule 1 or 2).

[1] = monotherapy 160 BID Schedule 1, ABC Subtype of DLBCL Patients
[2] = monotherapy 160 BID Schedule 1, CD79B ITAM_Mut
[3] = monotherapy 160 BID Schedule 1, CD79B ITAM_WT
[4] = monotherapy 160 BID Schedule 1, CD79B_Mut
[5] = monotherapy 160 BID Schedule 1, CD79B_WT
[6] = monotherapy 160 BID Schedule 1, MYD88_L265P
[7] = monotherapy 160 BID Schedule 1, MYD88_WT
[8] = monotherapy 160 BID Schedule 1, NOTCH1_Mut
[9] = monotherapy 160 BID Schedule 1, NOTCH1_WT
[10] = monotherapy 160 BID Schedule 1, Non-GCB DLBCL Patients
[11] = monotherapy 160 BID Schedule 1, Non-GCB DLBCL Patients with Sequence Available
[12] = monotherapy 160 BID Schedule 1, Patients with Sequence Available
[13] = monotherapy 160 BID Schedule 2, ABC Subtype of DLBCL Patients
[14] = monotherapy 160 BID Schedule 2, CD79B ITAM_Mut
[15] = monotherapy 160 BID Schedule 2, CD79B ITAM_WT
[16] = monotherapy 160 BID Schedule 2, CD79B_Mut
[17] = monotherapy 160 BID Schedule 2, CD79B_WT
[18] = monotherapy 160 BID Schedule 2, MYD88_L265P
[19] = monotherapy 160 BID Schedule 2, MYD88_L265P/CD79B_Mut
[20] = monotherapy 160 BID Schedule 2, MYD88_WT
[21] = monotherapy 160 BID Schedule 2, NOTCH1_Mut
[22] = monotherapy 160 BID Schedule 2, NOTCH1_WT
[23] = monotherapy 160 BID Schedule 2, Non-GCB DLBCL Patients
[24] = monotherapy 160 BID Schedule 2, Non-GCB DLBCL Patients with Sequence Available
[25] = monotherapy 160 BID Schedule 2, Other (not MYD88_L265P/CD79B_Mut)
[26] = monotherapy 160 BID Schedule 2, Patients with Sequence Available
[27] = monotherapy Total (N = 79), ABC Subtype of DLBCL Patients
[28] = monotherapy Total (N = 79), CD79B ITAM_Mut
[29] = monotherapy Total (N = 79), CD79B ITAM_WT
[30] = monotherapy Total (N = 79), CD79B_Mut
[31] = monotherapy Total (N = 79), CD79B_WT
[32] = monotherapy Total (N = 79), MYD88_L265P
[33] = monotherapy Total (N = 79), MYD88_L265P/CD79B_Mut
[34] = monotherapy Total (N = 79), MYD88_WT
[35] = monotherapy Total (N = 79), NOTCH1_Mut
[36] = monotherapy Total (N = 79), NOTCH1_WT
[37] = monotherapy Total (N = 79), Non-GCB DLBCL Patients
[38] = monotherapy Total (N = 79), Non-GCB DLBCL Patients with Sequence Available
[39] = monotherapy Total (N = 79), Other (not MYD88_L265P/CD79B_Mut)
[40] = monotherapy Total (N = 79), Patients with Sequence Available

Compound: C=CC(=O)N1CCC([C@@H]2CCNc3c(C(N)=O)c(-c4ccc(Oc5ccccc5)cc4)nn32)CC1 [Compound 1, (S)-7-(1-acryloylpiperidin-4-yl)-2-(4-phenoxyphenyl)-4,5,6,7-tetra-hydropyrazolo[1,5-a]pyrimidine-3-carboxamide]
- ORR (GEP-confirmed activated B-cell DLBCL, first of the two monotherapies (Schedule 1)): 53.8%
- ORR (GEP-confirmed activated B-cell DLBCL, second of the two monotherapies (Schedule 2)): 36%
- ORR [1]: 53.8
- Response/Patient [1]: 7/13
- ORR [2]: 100.0
- Response/Patient [2]: 2/2
- Difference in ORR (95% CI) (monotherapy 160 BID Schedule 1, CD79B ITAM_Mut vs CD79B ITAM_WT): 50.0
- ORR [3]: 50.0
- Response/Patient [3]: 4/8
- ORR [4]: 75.0
- Response/Patient [4]: 3/4
- Difference in ORR (95% CI) (monotherapy 160 BID Schedule 1, CD79B_Mut vs CD79B_WT): 25.0
- ORR [5]: 50.0
- Response/Patient [5]: 3/6
- ORR [6]: 0.0
- Response/Patient [6]: 0/1
- Difference in ORR (95% CI) (monotherapy 160 BID Schedule 1, MYD88_L265P vs MYD88_WT): −66.7
- ORR [7]: 66.7
- Response/Patient [7]: 6/9
- ORR [8]: 100.0
- Response/Patient [8]: 1/1
- Difference in ORR (95% CI) (monotherapy 160 BID Schedule 1, NOTCH1_Mut vs NOTCH1_WT): 44.4
- ORR [9]: 55.6
- Response/Patient [9]: 5/9
- ORR [10]: 31.6
- Response/Patient [10]: 12/38
- ORR [11]: 60.0
- Response/Patient [11]: 6/10
- ORR (monotherapy 160 BID Schedule 1, Other (not MYD88_L265P/CD79B_Mut)): 60.0
- ORR [12]: 63.6
- Response/Patient [12]: 7/11
- ORR [13]: 36.0
- Response/Patients [13]: 9/25
- ORR [14]: 46.2
- Response/Patients [14]: 6/13
- Difference in ORR (95% CI) (monotherapy 160 BID Schedule 2, CD79B ITAM_Mut vs CD79B ITAM_WT): 17.6
- ORR [15]: 28.6
- Response/Patients [15]: 6/21
- ORR [16]: 46.2
- Response/Patients [16]: 6/13
- Difference in ORR (95% CI) (monotherapy 160 BID Schedule 2, CD79B_Mut vs CD79B_WT): 17.6
- ORR [17]: 28.6
- Response/Patients [17]: 6/21
- ORR [18]: 40.0
- Response/Patients [18]: 4/10
- Difference in ORR (95% CI) (monotherapy 160 BID Schedule 2, MYD88_L265P vs MYD88_WT): 6.7
- ORR [19]: 50.0
- Response/Patients [19]: 3/6
- Difference in ORR (95% CI) (monotherapy 160 BID Schedule 2, MYD88_L265P/CD79B_Mut vs Other): 17.9
- ORR [20]: 33.3
- Response/Patients [20]: 8/24
- ORR [21]: 100.0
- Response/Patients [21]: 2/2
- Difference in ORR (95% CI) (monotherapy 160 BID Schedule 2, NOTCH1_Mut vs NOTCH1_WT): 68.8
- ORR [22]: 31.3
- Response/Patients [22]: 10/32
- ORR [23]: 29.3
- Response/Patients [23]: 12/41
- ORR [24]: 35.3
- Response/Patients [24]: 12/34
- ORR [25]: 32.1
- Response/Patients [25]: 9/28
- ORR [26]: 35.3
- Response/Patients [26]: 12/34
- ORR [27]: 42.1
- Response/Patients [27]: 16/38
- ORR [28]: 53.3
- Response/Patients [28]: 8/15
- Difference in ORR (95% CI) (monotherapy Total (N = 79), CD79B ITAM_Mut vs CD79B ITAM_WT): 18.9
- ORR [29]: 34.5
- Response/Patients [29]: 10/29
- ORR [30]: 52.9
- Response/Patients [30]: 9/17
- Difference in ORR (95% CI) (monotherapy Total (N = 79), CD79B_Mut vs CD79B_WT): 19.6
- ORR [31]: 33.3
- Response/Patients [31]: 9/27
- ORR [32]: 36.4
- Response/Patients [32]: 4/11
- Difference in ORR (95% CI) (monotherapy Total (N = 79), MYD88_L265P vs MYD88_WT): −6.1
- ORR [33]: 50.0
- Response/Patients [33]: 3/6
- Difference in ORR (95% CI) (monotherapy Total (N = 79), MYD88_L265P/CD79B_Mut vs Other): 10.5
- ORR [34]: 42.4
- Response/Patients [34]: 14/33
- ORR [35]: 100.0
- Response/Patients [35]: 3/3
- Difference in ORR (95% CI) (monotherapy Total (N = 79), NOTCH1_Mut vs NOTCH1_WT): 63.4
- ORR [36]: 36.6
- Response/Patients [36]: 15/41
- ORR [37]: 30.4
- Response/Patients [37]: 24/79
- ORR [38]: 40.9
- Response/Patients [38]: 18/44
- ORR [39]: 39.5
- Response/Patients [39]: 15/38
- ORR [40]: 42.2
- Response/Patients [40]: 19/45
- unadjusted ORR (first of the two monotherapies (Schedule 1)): 31.6%
- unadjusted ORR (second of the two monotherapies (Schedule 2)): 29.3%
- ORR (two monotherapies, NOTCH1 mutant (n=3)): 100%
- ORR (two monotherapies, non-GCB DLBCL with CD79B mutations (n=17)): 52.9%
- ORR (two monotherapies, other population (without CD79B mutations)): 33.3%
- ORR (two monotherapies, patients without NOTCH1 mutation): 36.6%
